This is an account of results in US20090054507A1, “CONTROL OF MALIGNANT CELLS BY KINASE INHIBITION” (CLEVELAND STATE UNIVERSITY, priority 2006, published 2009).

One data set relates to tumors of HT1376 cells. As to the kind of experiment: Murine xenograft of HT1376 cells, tumor volume. The data set is classed as in vivo, mice. The note with it: DMAT at effective dosage levels (in DMSO) per animal per day, 36 days. The method, then:
FIG. 95 illustrates the effect of administration of DMAT s compared to a control over a time period of 36 days. FIG. 95 is a graph of a murine xenograft treated with DMAT, compared to a control. Mice with tumors of HT1376 cells were treated with DMAT at effective dosage levels (in DMSO) per animal per day. The daily animal weight was averaged at 32.5 g at the start of treatment. Tumors were measured daily and tumor volumes were calculated based upon a prolate spheroid model. FIG. 95 illustrates the significant benefits of treatment with DMAT (circles) as compared to the control (squares). Although the tumor size increased for HT1376 cells treated with DMAT, the tumor volume remained approximately one-half of the size as that associated with the untreated HT1376 cells.

Data set [1] deals with MEG-01 cells. Description: Viability (proliferation) assay, Trypan blue exclusion, MEG-01. The format is cell-based, human.
For another data set, the system named is tumors of ACHN cells. As to the kind of experiment: Murine xenograft of ACHN cells, tumor volume. The data set is classed as in vivo, mice. Particulars: DMAT at effective dosage levels (in DMSO) per animal per day, 59 days. The method, then: FIG. 94 illustrates the effect of administration of DMAT as compared to a control over a period of 59 days. FIG. 94 is a graph of a murine xenograft treated with DMAT, compared to a control. Mice with tumors of ACHN cells were treated with DMAT at effective dosage levels (in DMSO) per animal per day. The daily animal weight was averaged at 32.5 g at the start of treatment. Tumors were measured daily and tumor volumes were calculated based upon a prolate spheroid model. FIG. 94 illustrates the significant benefits of treatment with DMAT (circles) as compared to the control (squares). […] The differences in tumor volume between control cells and those treated with DMAT, as described herein, are striking.

The subject of another data set is tumor tissue and organs. As to the kind of experiment: Hematoxylin & eosin staining of tumor tissue and organs of treated xenograft mice (all cell lines). The format is in vivo. The procedure: Hematoxylin & eosin staining of tumor tissue and organs. After euthanasia with CO2, mice were supposed to necropsy. Tumors were collected from under the skin from both flanks and were measured for the last time and then fixed in formalin fixative. Spleen, liver, kidney, brain, lungs and legs were collected and fixed. Spleens were also measured (as length, […]). Fresh tissue was immersed immediately into liquid nitrogen and kept frozen at −80° C. Fixed tissue was embedded in paraffin and next processed for H&E (the basic dye hematoxylin, and the alcohol-based synthetic material, eosin) by the Cleveland Clinic Histology Core facility. Sections (4-μm thick) were stained with hematoxylin and eosin and evaluated for pathologic changes in a blinded fashion. H&E staining gives morphological information (vascularization, normal proliferating tissue, necrosis and apoptosis of the tissue).

The subject of another data set is MEG-01 xenografts. Description: Blood counts in MEG-01 xenograft mice. The format is in vivo. The method, then:
At the end of the trial, tail-bleeding times assay was performed and blood was collected for blood counts from live and anesthetized mice. After these experiments were completed mice were sacrificed and tumors and organs were collected. Samples were fixed in formalin for further processing.
Mice blood collection and blood counts. Blood counts are dependent upon the method and time of blood collection. Whole blood was collected from the retro-orbital sinus (under the eye) of anesthesiated mice (both DMSO treated and DMAT treated batch). EDTA and prostaglandin E1 (PGE1) were used at collection to prevent clotting during blood collection. 500 μl mice whole blood with 100 μl anticoagulant were used for counting (a 1:5 dilution). A hematological analyzer was used for this. Samples were compared (gated) with normal mice (C57BL strain).

Data set [2] has as its system MEG-01 cells. As to the kind of experiment: Thrombocytopoiesis / proplatelet formation by microscopy. The format is cell-based, human. The method, then:
Light microscopy (phase contrast) and DAPI fluorescence microscopy. High quality pictures and live imaging were obtained at Cleveland Clinic Imaging Core (Cleveland, Ohio). DAPI staining of cultured MEG-01 cells was performed with fresh cells. For live imaging (observing a single cell for a 24 hour period of time) of the thrombocytopoiesis process, MEG-01 suspension cells were made adherent by using Fibronectin (FN) coated culture dishes. FN was used, at 5 μg/cm^2 and incubated at 37° C. for 1 h, as recommended by the supplier (BD Biosciences, Bedford, Mass., USA).
Scanning electron microscopy (SEM). Cell preparation and pictures were performed at the Microscopy Core Facility (Cleveland Clinic). Cells were grown for 4 days in the presence of 10 μM DMAT and then collected by differential centrifugation. Cells were fixed in glutaraldehyde and then further processed at the Core. The clot was prepared with platelets collected from MEG-01 cultures treated with 10 μM DMAT. Human thrombin 0.5 U/ml for 15 minutes was used to activate them.

For the next data set, the system named is MCF-7 cells. Description: Anchorage independence in soft agar, MCF-7. The data set is classed as cell-based, human. Particulars: DMAT 10 μM, one week.

With `CN(C)c1nc2c(Br)c(Br)c(Br)c(Br)c2[nH]1` [DMAT, 2-dimethylamino-4,5,6,7-tetrabromo-1H-benzimidazole], in the data set with tumors of HT1376 cells, the “tumor volume relative to untreated HT1376 cells” value is listed as “approximately one-half”. In addition, the “proliferation of MEG-01 cells (Trypan Blue exclusion)” value with MEG-01 cells [1] (25 μM DMAT, compared with 5 nM PMA) was “level of decrease was similar”. The “cell number / proliferation rate of MEG-01 cells” value in the data set with MEG-01 cells [1] (50 μM DMAT, 4 days of treatment) is on record as “maintained a steady number of cells”. Moreover, in the data set with tumors of ACHN cells, the tumor volume entry was “proliferation arrest in vivo for large tumors and tumor ablation in small tumors”. The “necrotic and apoptotic areas of tumors from treated mice vs untreated (DMSO) control tumors” value in the data set with tumor tissue and organs (all tumors, hematoxylin-eosin staining) was “high necrotic and apoptotic areas”. The “other organs of treated mice, hematoxylin-eosin staining” value in the data set on tumor tissue and organs (mouse, in vivo) is “appeared normal”. Further, the platelet counts entry with MEG-01 xenografts (DMAT 50 μl/day of 125 mg, compared to a control) was “increase in platelet counts”. Besides, in the data set with MEG-01 xenografts (DMAT treated vs DMSO control), the “percentage of abnormal cells in blood counts” value was “the control has higher percentages of abnormal cells”. Further, the thrombocytopoiesis result in the data set with MEG-01 cells [2] is on record as “induced thrombocytopoiesis”. In the data set on MEG-01 cells [2] (10 μM DMAT, as early as from the second day), the proplatelet formation entry was “form proplatelet extensions”. For the same compound, the “colonies in soft agar” value in the data set on MCF-7 cells is “much smaller and fewer colonies”.
